In patent US7718360B2, “Composition (RCUD) for protecting and/or repairing DNA from oxidative damages and a method thereof” (Council of Scientific & Industrial Research, priority 2003, dated 2010):
Numbered stars: 1 amine (or outer) side, 2 acyl side, 3 side chain; on linkers, the order of the positions; unused ones are H or OH. Bridge positions count the residues as written; N and C are the ends. Square brackets hold non-standard residues; d marks the D form. Peptide text beside a SMILES is read from it. I, II: the chains in the order shown. Actinocin(9to1) = Cc1c2oc3c(C)ccc(C(=O)[*:1])c3nc-2c(C(=O)[*:2])c(N)c1=O; NMeV = CN[C@H](C(=O)O)C(C)C; Sar = CNCC(=O)O

Assays:
Assay type in all cases: cell-based
[1] = system: polymorphonuclear leucocytes; assay: DNA damage induced by actinomycin D and protection by redistilled cow's urine distillate; conditions: Table 2; Actinomycin D alone (positive control)
Protocol: (§1) To 5 ml of whole blood 15 ml of solution A is added, mixed well and kept between 2 and 4° C. for 30 minutes. The mixture was centrifuged at 800×g for 10 minutes. The supernatant is discarded, the pellet was washed with balanced salt solution and washing is discarded after centrifugation at 800×g for 10 minutes. This step was done twice. The pellet comprises of peripheral polymorphonuclear leukocytes (PMNs) which are suspended in predetermined amount of solution B.
(§2) The volume in each tube was made up to 2 ml by adding BSS solution. The mixture is incubated at 37° C. for 1 hr in 5% CO2 incubator with 95% humidity. After incubation, 5 ml of ice cold 0.9% NaCl was added in each tube, centrifuged at 800 g for 10 minutes and the supernatant is discarded. To the pellet in each tube 1.5 ml of solution B was added. The tubes (control and three experimental) are mixed thoroughly and the mixture was equally distributed in the volume of 0.2 ml in 3 tubes designated as B, P and T, then 200 μl of solution C was added. The three tubes B, P & T, were kept in cold (0° C.) for 10 minutes after mixing well in order to lyse the cells. To tube T 400 μl of solution E was added. Thereafter, 200 μl of solution D was added to all the tubes B, P and T. The tubes were kept at 0° C. for 30 minutes. Thereafter, contents of the B tube was sonicated for 30 second three times. B, P and T were further incubated at 20° C. for 1 hr. To B and P tubes 400 μl of solution E was added and the tubes were incubated at 0° C. for 10 minutes. 1.5 ml of solution F are added to all the tubes, homogenized on a vortex shaker and subjected to fluorescence spectrophotometric analyses within 15 minutes with 520 nm excitation and at 590 nm emission. The percentage of double stranded DNA remaining was determined using the following formula. [Krishnamurthi et al. (2003) & Bimboim & Jevcak (1981)].
(§3) [formula] • Where P, B and T are the fluorescence emissions at 590 nm.
(§4) One ml of PMNs suspended in solution B containing around 1×10^6 cells were taken in four tubes A, B, C and D. To tube B, 60 μl of redistilled cow urine distillate (RCUD) was added and incubated at 37° C. for 10 minutes.
(§5) To tube A only 60 μl of RCUD was added; the volume was made up with BSS. The mixture was incubated at 37° C. for 1 hr in 5% CO2 incubator with 95% humidity. The rest of the protocol was followed as described under C and D.

[2] = system: polymorphonuclear leucocytes; assay: DNA damage induced by hydrogen peroxide (H2O2) and protection by redistilled cow's urine distillate
Protocol: as §1
as §2, with “formula.” for “formula. [Krishnamurthi et al. (2003) & Bimboim & Jevcak (1981)].”
as §3, §4, §5

[3] = system: polymorphonuclear leucocytes; assay: DNA damage induced by manganese dioxide (MnO2) and protection by redistilled cow's urine distillate; conditions: Table 4; MnO2 20 μl alone (positive control)
Protocol: as §1, §2, §3, §4, §5

[4] = Table 3, H2O2 alone (positive control)
[5] = Table 5, H2O2 10 μl alone (positive control)
[6] = Table 6, H2O2 10 μl alone (positive control)

Cc1c2oc3c(C)ccc(C(=O)N[C@@H]4C(=O)N[C@H](C(C)C)C(=O)N5CCC[C@H]5C(=O)N(C)CC(=O)N(C)[C@@H](C(C)C)C(=O)O[C@@H]4C)c3nc-2c(C(=O)N[C@@H]2C(=O)N[C@H](C(C)C)C(=O)N3CCC[C@H]3C(=O)N(C)CC(=O)N(C)[C@@H](C(C)C)C(=O)O[C@@H]2C)c(N)c1=O [Actinomycin D] (I: T[dV]P[Sar][NMeV] / II: T[dV]P[Sar][NMeV]; ester I:1-I:C, II:1-II:C; linker I:N-II:N via Actinocin(9to1))
Mean, percentage of double stranded DNA remaining [1]: 38 percentage | Set I, percentage of double stranded DNA remaining [1]: 40 percentage | Set II, percentage of double stranded DNA remaining [1]: 38 percentage | Set III, percentage of double stranded DNA remaining [1]: 44 percentage | Set IV, percentage of double stranded DNA remaining [1]: 28 percentage | Set V, percentage of double stranded DNA remaining [1]: 39 percentage

OO [Hydrogen Peroxide (H2O2), Hydrogen Peroxide]
Mean, percentage of double stranded DNA remaining [2, 4]: 31 percentage | Set I, percentage of double stranded DNA remaining [2, 4]: 20 percentage | Set II, percentage of double stranded DNA remaining [2, 4]: 29 percentage | Set III, percentage of double stranded DNA remaining [2, 4]: 24 percentage | Set IV, percentage of double stranded DNA remaining [2, 4]: 43 percentage | Set V, percentage of double stranded DNA remaining [2, 4]: 38 percentage | Mean, percentage of double stranded DNA remaining [2, 5]: 26 percentage | Set I, percentage of double stranded DNA remaining [2, 5]: 24 percentage | Set II, percentage of double stranded DNA remaining [2, 5]: 24 percentage | Set III, percentage of double stranded DNA remaining [2, 5]: 24 percentage | Set IV, percentage of double stranded DNA remaining [2, 5]: 33 percentage | Set V, percentage of double stranded DNA remaining [2, 5]: 24 percentage | Mean, percentage of double stranded DNA remaining [2, 6]: 26 percentage | Set I, percentage of double stranded DNA remaining [2, 6]: 24 percentage | Set II, percentage of double stranded DNA remaining [2, 6]: 24 percentage | Set III, percentage of double stranded DNA remaining [2, 6]: 24 percentage | Set IV, percentage of double stranded DNA remaining [2, 6]: 33 percentage | Set V, percentage of double stranded DNA remaining [2, 6]: 24 percentage

[O]=[Mn]=[O] [Manganese dioxide (MnO2), Manganese dioxide]
Mean, percentage of double stranded DNA remaining [3]: 21 percentage | Set I, percentage of double stranded DNA remaining [3]: 22 percentage | Set II, percentage of double stranded DNA remaining [3]: 30 percentage | Set III, percentage of double stranded DNA remaining [3]: 22 percentage | Set IV, percentage of double stranded DNA remaining [3]: 15 percentage | Set V, percentage of double stranded DNA remaining [3]: 16 percentage
